Results: patent US12583854B2, “KRAS G12C inhibitors and methods of using the same” (Amgen Inc., priority 2018, dated 2026)
Counter-ions that a name gives are not always drawn. Like-named read-outs stand apart in the source and are kept apart here.

Key:
[1] = target: GDP-bound KRAS protein (aa 1-169), containing both G12C and C118A amino acid substitutions (Homo sapiens, UniProt P01116, C118A/G12C); experiment: Coupled Nucleotide Exchange Assay; format: biochemical; details: 5 min compound pre-incubation; SOS-mediated nucleotide exchange, AlphaScreen
Chain of GDP-bound KRAS protein (aa 1-169), containing both G12C and C118A amino acid substitutions (P01116 1-169 isoform P01116-2 G12C/C118A): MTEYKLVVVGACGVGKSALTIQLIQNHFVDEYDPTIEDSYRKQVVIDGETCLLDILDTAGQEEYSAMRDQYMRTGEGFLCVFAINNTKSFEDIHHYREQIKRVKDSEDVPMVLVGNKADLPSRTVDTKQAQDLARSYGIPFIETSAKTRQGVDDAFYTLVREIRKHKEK
Description: Following compound pre-incubation, purified SOS protein (aa 564-1049) and GTP (Roche 10106399001) were added to the assay wells and incubated for an additional 30 min. To determine the extent of inhibition of SOS-mediated nucleotide exchange, purified GST-tagged cRAF (aa 1-149), nickel chelate AlphaLISA acceptor beads (PerkinElmer AL108R), and AlphaScreen glutathione donor beads (PerkinElmer 6765302) were added to the assay wells and incubated for 10 minutes. The assay plates were then read on a PerkinElmer EnVision Multilabel Reader, using AlphaScreen® technology, and data were analyzed using a 4-parameter logistic model to calculate IC50 values.

[2] = tested on: Phosphorylation of ERK1/2 in MIA PaCa-2 cells; experiment: Phospho-ERK1/2 MSD Assay; format: cell-based; details: EGF stimulation 10 ng/mL, 10 min, read-out: p-ERK IC50 (2 h)
Description: Phospho-ERK1/2 MSD Assay: MIA PaCa-2 (ATCC® CRL-1420™) and A549 (ATCC® CCL-185™) cells were cultured in RPMI 1640 Medium (ThermoFisher Scientific 11875093) containing 10% fetal bovine serum (ThermoFisher Scientific 16000044) and 1× penicillin-streptomycin-glutamine (ThermoFisher Scientific 10378016). Sixteen hours prior to compound treatment, MIA PaCa-2 were seeded in 96-well cell culture plates at a density of 25,000 cells/well and incubated at 37° C., 5% CO2. A compound dose-response titration was diluted in growth media, added to appropriate wells of a cell culture plate, and then incubated at 37° C., 5% CO2 for 2 (see Table 10). Following compound treatment, cells were stimulated with 10 ng/mL EGF (Roche 11376454001) for 10 min, washed with ice-cold Dulbecco's phosphate-buffered saline, no Ca^2+ or Mg^2+ (ThermoFisher Scientific 14190144), and then lysed in RIPA buffer (50 mM Tris-HCl pH 7.5, 1% Igepal, 0.5% sodium deoxycholate, 150 mM NaCl, and 0.5% sodium dodecyl sulfate) containing protease inhibitors (Roche 4693132001) and phosphatase inhibitors (Roche 4906837001). Phosphorylation of ERK1/2 in compound-treated lysates was assayed using Phospho-ERK1/2 Whole Cell Lysate kits (Meso Scale Discovery K151DWD) according to the manufacturer's protocol. Assay plates were read on a Meso Scale Discovery Sector Imager 6000, and data were analyzed using a 4-parameter logistic model to calculate IC50 values.

[3] = Homo sapiens, MIA PaCa-2, 2 h compound treatment

| Coupled exchange IC50 (5 min; μM) [1] [µM] | IC50 [2, 3] [nM] | IC50 ([2]; 2 h compound treatment) [nM] | Compound |
| --- | --- | --- | --- |
| 0.15 | 120 |  | C=CC(=O)N1CCN(c2c(C#N)c(=O)n(-c3c(C)ccnc3C(C)C)c3nc(-c4ccccc4C)c(Cl)cc23)CC1 (single isomer, unassigned) [Example 11.1, 4-(4-acryloylpiperazin-1-yl)-6-chloro-1-(2-isopropyl-4-methylpyridin-3-yl)-2-oxo-7-(o-tolyl)-1,2-dihydro-1,8-naphthyridine-3-carbonitrile] |
| 0.09 |  | 50 | C=CC(=O)N1CCN(c2c(C#N)c(=O)n(-c3c(C(C)C)ccnc3N(C)C)c3nc(-c4ccccc4F)c(Cl)cc23)CC1 (single isomer, unassigned) [Example 8.8, 4-(4-acryloylpiperazin-1-yl)-6-chloro-1-(2-(dimethylamino)-4-isopropylpyridin-3-yl)-7-(2-fluorophenyl)-2-oxo-1,2-dihydro-1,8-naphthyridine-3-carbonitrile] |
| 0.28 | 140 |  | C=CC(=O)N1CCN(c2c(C#N)c(=O)n(-c3c(C)ccnc3C(C)C)c3nc(-c4ccccc4F)c(Cl)cc23)C[C@H]1C [Example 6.2, (R)-4-(4-acryloyl-3-methylpiperazin-1-yl)-6-chloro-7-(2-fluorophenyl)-1-(2-isopropyl-4-methylpyridin-3-yl)-2-oxo-1,2-dihydro-1,8-naphthyridine-3-carbonitrile] |
| 0.44 | 560 |  | CC(C)NC/C=C/C(=O)N1CCN(c2c(C#N)c(=O)n(-c3c(C(C)C)ncnc3C(C)C)c3nc(-c4ccccc4F)c(Cl)cc23)CC1 [Example 5.1, (E)-6-chloro-1-(4,6-diisopropylpyrimidin-5-yl)-7-(2-fluorophenyl)-4-(4-(4-(isopropylamino)but-2-enoyl)piperazin-1-yl)-2-oxo-1,2-dihydro-1,8-naphthyridine-3-carbonitrile] |
| 0.05 | 90 |  | C=CC(=O)N1CCN(c2c(C#N)c(=O)n(-c3c(C)ccnc3C(C)C)c3nc(-c4ccccc4C(C)C)c(Cl)cc23)CC1 (single isomer, unassigned) [Example 11.3, 4-(4-acryloylpiperazin-1-yl)-6-chloro-1-(2-isopropyl-4-methylpyridin-3-yl)-7-(2-isopropylphenyl)-2-oxo-1,2-dihydro-1,8-naphthyridine-3-carbonitrile] |
| 0.13 | 90 |  | C=CC(=O)N1CCN(c2c(C#N)c(=O)n(-c3c(C(C)C)ncnc3C(C)C)c3nc(-c4c(N)cccc4F)c(Cl)cc23)CC1 [Example 11.4, 4-(4-acryloylpiperazin-1-yl)-7-(2-amino-6-fluorophenyl)-6-chloro-1-(4,6-diisopropylpyrimidin-5-yl)-2-oxo-1,2-dihydro-1,8-naphthyridine-3-carbonitrile] |
| 0.18 | 160 |  | CC(C)c1ncnc(C(C)C)c1-n1c(=O)c(C#N)c(N2CCN(C(=O)/C=C/CN)CC2)c2cc(Cl)c(-c3ccccc3F)nc21 [Example 4.1, (E)-4-(4-(4-aminobut-2-enoyl)piperazin-1-yl)-6-chloro-1-(4,6-diisopropylpyrimidin-5-yl)-7-(2-fluorophenyl)-2-oxo-1,2-dihydro-1,8-naphthyridine-3-carbonitrile] |
| 0.34 | 300 |  | CNC/C=C/C(=O)N1CCN(c2c(C#N)c(=O)n(-c3c(C(C)C)ncnc3C(C)C)c3nc(-c4ccccc4F)c(Cl)cc23)CC1 [Example 4, (E)-6-Chloro-1-(4,6-diisopropylpyrimidin-5-yl)-7-(2-fluorophenyl)-4-(4-(4-(methylamino)but-2-enoyl)piperazin-1-yl)-2-oxo-1,2-dihydro-1,8-naphthyridine-3-carbonitrile trifluoroacetate salt] |
|  |  | 140 | C=CC(=O)N1CCN(c2c(C#N)c(=O)n(-c3c(C(C)C)ccnc3C(C)C)c3nc(-c4ccccc4C)c(Cl)cc23)CC1 (single isomer, unassigned) [Example 7.1, 4-(4-acryloylpiperazin-1-yl)-6-chloro-1-(2,4-diisopropylpyridin-3-yl)-2-oxo-7-(o-tolyl)-1,2-dihydro-1,8-naphthyridine-3-carbonitrile] |
| 0.07 | 40 |  | C=CC(=O)N1CCN(c2c(C#N)c(=O)n(-c3c(C(C)C)ncnc3C(C)C)c3nc(-c4ccccc4F)c(Cl)cc23)CC1 [Example 6.3, 4-(4-acryloylpiperazin-1-yl)-6-chloro-1-(4,6-diisopropylpyrimidin-5-yl)-7-(2-fluorophenyl)-2-oxo-1,2-dihydro-1,8-naphthyridine-3-carbonitrile] |
| 0.12 |  | 160 | C=CC(=O)N1CCN(c2c(C#N)c(=O)n(-c3c(C(C)C)ccnc3C(C)C)c3nc(-c4ccccc4F)c(Cl)cc23)CC1 (single isomer, unassigned) [Example 8.2, 4-(4-acryloylpiperazin-1-yl)-6-chloro-1-(2,4-diisopropylpyridin-3-yl)-7-(2-fluorophenyl)-2-oxo-1,2-dihydro-1,8-naphthyridine-3-carbonitrile] |
| 0.17 |  | 170 | C=CC(=O)N1CCN(c2c(C#N)c(=O)n(-c3c(C)ccnc3C(C)C)c3nc(-c4ccccc4F)c(Cl)cc23)CC1 [Example 6, 4-(4-Acryloylpiperazin-1-yl)-6-chloro-7-(2-fluorophenyl)-1-(2-isopropyl-4-methylpyridin-3-yl)-2-oxo-1,2-dihydro-1,8-naphthyridine-3-carbonitrile] |
| 0.06 | 120 |  | C=CC(=O)N1CCN(c2c(C#N)c(=O)n(-c3c(C(C)C)ccnc3C(C)C)c3nc(-c4ccccc4F)c(Cl)cc23)CC1 (racemic) [Example 8, 4-(4-Acryloylpiperazin-1-yl)-6-chloro-1-(2,4-diisopropylpyridin-3-yl)-7-(2-fluorophenyl)-2-oxo-1,2-dihydro-1,8-naphthyridine-3-carbonitrile] |
| 0.07 | 320 |  | C=CC(=O)N1CCN(c2c(C#N)c(=O)n(-c3c(C(C)C)ccnc3C(C)C)c3nc(-c4ccccc4F)c(Cl)cc23)CC1 (single isomer, unassigned) [Example 8.1, 4-(4-acryloylpiperazin-1-yl)-6-chloro-1-(2,4-diisopropylpyridin-3-yl)-7-(2-fluorophenyl)-2-oxo-1,2-dihydro-1,8-naphthyridine-3-carbonitrile] |
| 0.71 | 1260 |  | CC(C)c1ncnc(C(C)C)c1-n1c(=O)c(C#N)c(N2CCN(C(=O)/C=C/C3CCCN3C)CC2)c2cc(Cl)c(-c3ccccc3F)nc21 (stereo not shown) [Example 3.2] |
| 0.25 | 160 |  | C=CC(=O)N1CCN(c2c(C#N)c(=O)n(-c3c(N(C)C)ccnc3C(C)C)c3nc(-c4ccccc4F)c(Cl)cc23)CC1 (single isomer, unassigned) [Example 8.6, 4-(4-acryloylpiperazin-1-yl)-6-chloro-1-(4-(dimethylamino)-2-isopropylpyridin-3-yl)-7-(2-fluorophenyl)-2-oxo-1,2-dihydro-1,8-naphthyridine-3-carbonitrile] |
